The results in this text go back to PubChem BioAssay (NCI).

Common to all, as to assay: growth of human tumour cells (NCI), 48 h
In test [1] the test system is PC-3 prostate.
The subject of test [2] is M14 melanoma.
The test system of test [3] is HOP-92 NSCLC.
For test [4], the system named is HS 578T breast.
The subject of test [5] is RXF 393 renal.
Test [6] concerns MDA-MB-231 breast.
Test [7] has as its system NCI-H23 lung.
Test [8] has as its system MDA-N.
The subject of test [9] is SNB-19 CNS.
In test [10] the test system is HOP-62 NSCLC.

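Assay format: 96-well plates, 48-hour exposure. The concentration for 50% growth inhibition is given as GI50. TGI: concentration producing complete growth inhibition.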 Where a SMILES comes first, the peptide text is derived from it. [ ]: non-standard residue; d: D form. The star is where a group is joined. Cbz = O=C(OCc1ccccc1)*; Boc = CC(C)(C)OC(=O)*; Aib = CC(C)(N)C(=O)O; OBn = c1ccc(CO*)cc1; OtBu = CC(C)(C)O*; βAla = NCCC(=O)O

`CC(C)(C)OC(=O)CC(NC(=O)OC(C)(C)C)C(=O)NC(CCCCNC(=O)OCc1ccccc1)C(=O)NC(C)(C)C(=O)NCCC(=O)OCc1ccccc1` (stereo unspecified) (Boc-D(OtBu)K(Cbz)[Aib][βAla]-OBn; configuration not given here): the TGI in test [1], in test [2], in test [3], in test [4], in [5] and in test [6] was over 100 µM each time. The TGI in test [7], in [8], in test [9] and in test [10] was over 100 µM throughout.

On to `NC(CCCCNC(=O)OCc1ccccc1)C(=O)NC(CCCCNC(=O)OCc1ccccc1)C(=O)ON1C(=O)CCC1=O` (stereo unspecified), for which the TGI in test [1], in test [2], in test [3], in [4], in test [5] and in test [6] was over 100 µM throughout. The TGI in test [7], in test [8], in [9] and in test [10] was over 100 µM each time.

On to `O=C1[C@@H]2Cc3c([nH]c4ccccc34)C(C3CCCCC3)N2C(=O)[C@@H]2CCCN12` (stereo partly specified), for which the TGI was 60.6 µM in [1]; over 100 µM in test [2]; 76.6 µM in test [3]; 68.7 µM in test [4]; over 100 µM in [5]; 50.2 µM in test [6]. Also, the TGI in test [7], in test [8], in test [9] and in test [10] was over 100 µM each time.

For the compound `O=C(Nc1cccc(-c2cn3ccccc3n2)c1)c1ccncc1`, the TGI was over 100 µM in [1]; over 100 µM in [2]; over 100 µM in test [3]; over 100 µM in test [4]; over 100 µM in [5]; 98.7 µM in test [6]. The TGI was 65 µM in test [7], over 100 µM in [8], over 100 µM in test [9] and over 100 µM in [10].

Consider `Cc1ccc(S(=O)(=O)N2CCN(CCN(C)CCN3CCN(S(=O)(=O)c4ccc(C)cc4)CC3)CC2)cc1`, for which the TGI was determined as 56 µM in [1]; 31.2 µM in test [2]; 35.6 µM in [3]; 42.2 µM in test [4]; 27.8 µM in test [5]; 49 µM in test [6]. The TGI in test [7] was found to be 44.8 µM; in [8], 39.7 µM; in test [9], 69.4 µM; in test [10], 33 µM.

In the case of `CCOC(=O)C(Cc1ccccc1)(Cc1ccc(O)cn1)NC(=O)c1ccccc1` (stereo unspecified), the TGI is 75.1 µM in test [1]; 40.5 µM in test [2]; 59.1 µM in [3]; 63.6 µM in [4]; over 100 µM in test [5]; 99.6 µM in test [6]. Further, the TGI was over 100 µM in test [7], 23 µM in [8], over 100 µM in test [9] and over 100 µM in test [10].

For the compound `CCN(CC)CCCNc1ccc2nnn3c4ccc(O)cc4c(=O)c1c23`, the TGI in [1] came out at 19.3 µM; in [2], 23.6 µM; in test [3] it was 43.8 µM; in test [4] it was 31 µM; in test [5], 15 µM; in [6], 20.9 µM. In addition, the TGI came to 23.5 µM in test [7], 20.9 µM in [8], 22.8 µM in test [9] and 22.6 µM in test [10].

As for `Cc1[nH]c(-c2ccccc2)c(-c2ccc(Cl)cc2)c1C(=O)ONC(=O)c1ccccc1`, the TGI in test [1] stood at 17.2 µM; in test [2], 19.9 µM; in [3] it was 4.01 µM; in test [4] it was 5.72 µM; in test [5] it was 6.69 µM; in test [6] it was 12.1 µM. For the same compound, the TGI is 15.3 µM in test [7], 4.45 µM in test [8], 19.3 µM in [9] and 5.45 µM in [10].

As for `COC(=O)c1cncc2c1CC1C3(C(=O)OC)C=NC(C4C(CO)=CCC43)C21C` (stereo unspecified), the TGI in test [1], in test [2], in [3], in [4], in [5] and in test [6] was over 100 µM in each case. For the same compound, the TGI in test [7], in [8], in test [9] and in test [10] was over 100 µM in each case.

Turning to `N#CCc1nc(C#N)c(N)o1`, the TGI in [1], in [2], in test [3], in [4], in test [5] and in test [6] was over 100 µM throughout. Moreover, the TGI in test [7], in [8], in test [9] and in test [10] was over 100 µM each time. Moreover, in test [9], the GI50 was over 100 µM.

On to `O=C1C=CC(=O)c2ncccc21`, for which the TGI in test [1] worked out at 22.3 µM; in [2] it was 13.1 µM; in [3], 3.25 µM; in test [4], 56.4 µM; in test [5] it was 12.8 µM; in [6], 8.06 µM. Also, the TGI in test [7] was 23.6 µM; in test [8], 16.1 µM; in test [9], 19.1 µM; in [10], 28.6 µM.

As to `COC(=O)C(C)Sc1nc2cc(Cl)ccc2s1` (stereo unspecified), the TGI in test [1], in test [2], in [3], in [4], in [5] and in test [6] was over 100 µM in each case. For the same compound, the TGI in test [7], in test [8], in [9] and in [10] was over 100 µM throughout.

On to `CCOC(=O)c1c(N2CCOCC2)[nH]c(=O)c(C(c2ccc(OC)cc2)c2c(O)c(C(=O)OCC)c(N3CCOCC3)[nH]c2=O)c1O`, for which the TGI in [1], in test [2], in test [3], in [4], in test [5] and in [6] was over 100 µM in each case. In addition, the TGI in test [7], in test [8], in test [9] and in [10] was over 100 µM in each case.

Regarding `O=C(NCCO)c1ccc(Cl)cc1`, the TGI in test [1], in test [2], in test [3], in test [4], in test [5] and in [6] was over 100 µM throughout. In addition, the TGI in [7], in test [8], in test [9] and in [10] was over 100 µM in each case.

Regarding `Cc1cc(S(=O)(=O)Nc2nnc3cc(C(F)(F)F)cc(C)n23)c(S)cc1Cl`, the TGI in test [1], in [2], in test [3], in test [4], in test [5] and in [6] was over 100 µM throughout. Further, the TGI in test [7] is over 100 µM; in [8] it was over 100 µM; in test [9] it was over 86.4 µM; in test [10], over 100 µM.

Turning to `COc1cc2ccnc3c2c(c1O)N(C)C=C3`, the TGI in [1] is 29.5 µM; in test [2], 37 µM; in test [3], over 100 µM; in test [4] it was 53.1 µM; in test [5], 30 µM; in [6] it was over 71.1 µM. Besides, the TGI is 37.5 µM in test [7], over 38.4 µM in [8], over 62.9 µM in test [9] and 46.4 µM in [10].

For the compound `C/C=C/[C@H]1O[C@@](OC)([C@@H](C)[C@H](O)[C@H](C)[C@H]2OC(=O)/C(OC)=C/C(C)=C/[C@@H](C)[C@@H](O)[C@@H](C)[C@@H](O)[C@H](C)C/C(C)=C/C=C/[C@@H]2OC)CC(OC2CC(O)C(OC(N)=O)C(C)O2)[C@@H]1C` (stereo partly specified), the TGI was 6.09 µM in test [1]; under 0.0124 µM in test [2]; 11 µM in [3]; 17.9 µM in [4]; 15.7 µM in test [5]; 12.7 µM in test [6]. Besides, the TGI in test [7] came out at 21.7 µM; in test [8], 0.0486 µM; in test [9] it was 18.1 µM; in test [10], 1.4 µM.

Take `NC(N)=N/N=C/c1nc2sccn2c1[N+](=O)[O-]`: the TGI in test [1] was over 100 µM; in test [2], 52.7 µM; in test [3], over 100 µM; in [4] it was 98.4 µM; in test [5], 36.9 µM; in [6], 80.5 µM. For the same compound, the TGI in test [7] was 36.7 µM; in [8] it was 39.1 µM; in [9] it was over 100 µM; in [10], over 100 µM.

For `CC(C)(C)N1Cc2ccccc2/C(=C/Sc2ccccc2)C1=O`, the TGI in [1] was found to be 26.6 µM; in test [2], 25.2 µM; in test [3] it was 27.8 µM; in test [4], 41.2 µM; in [5] it was 34 µM; in test [6], 33.9 µM. Besides, the TGI in test [7] was determined as 24.2 µM; in test [8], 21.8 µM; in [9], 30.9 µM; in [10], 33.8 µM.

On to `COc1ccc(OC)c2cc(Cc3ccc(N(C)C)cc3)c(=O)c(Cc3ccc(N(C)C)cc3)cc12`, for which the TGI is over 100 µM in test [1]; over 100 µM in test [2]; over 100 µM in test [3]; 87.7 µM in [4]; over 100 µM in test [5]; over 100 µM in test [6]. Further, the TGI in test [7], in test [8], in test [9] and in [10] was over 100 µM each time.

For the compound `Nc1nc2c(ncn2C2C=CC(CO)O2)c(=O)[nH]1` (stereo unspecified), the TGI in test [1], in test [2], in [3], in [4], in [5] and in test [6] was over 100 µM each time. Further, the TGI in [7], in test [8], in test [9] and in test [10] was over 100 µM in each case.

For `COC1/C=C/C(C)C(C(C)C(OC)C(C)CCC(=O)C(C)C(CCC(=O)O)OC)OC(=O)/C=C/C=C(\C)CC(OC)CC2=CC(=O)O[C@@H](C(C)C(OC)CC(OC)/C=C/C(C)C(OC)C1)[C@H]2O` (stereo partly specified), the TGI was 2.82 µM in test [1]; over 5 µM in test [2]; 1.36 µM in test [3]; over 5 µM in [4]; 1.49 µM in test [5]; 1.78 µM in test [6]. For the same compound, the TGI in [7], in [8], in [9] and in test [10] was over 5 µM throughout.

With `COC(=O)C(COC(=O)/C=C/c1ccc(OC(C)=O)c(OC(C)=O)c1)OC(=O)/C=C/c1ccc(OC(C)=O)c(OC(C)=O)c1` (stereo unspecified), the TGI in [1] was 23.4 µM; in [2], 20.6 µM; in [3], 47.6 µM; in test [4], over 100 µM; in test [5] it was 25.8 µM; in test [6], 35.6 µM. In addition, the TGI is 71.8 µM in [7], 21.7 µM in test [8], 22.2 µM in test [9] and 58.2 µM in test [10].
